Measurements taken from patent publication US7411002B2, “Polycationic sulfonamides and use thereof” (priority 2006, dated 2008).
Like-named read-outs stand apart in the source and are kept apart here.

How the values were obtained:
[1] = Rapid-throughput BODIPY-TR cadaverine (BC) fluorescence displacement assay for binding affinity to LPS; conditions: half-maximal effective displacement of BODIPY-TR cadaverine probe from LPS; 50 mM Tris buffer, pH 7.4; read-out: Binding affinity (BC displacement) ED50 value
Method: Rapid-throughput Fluorescence Displacement Assay for quantifying binding affinities to LPS. […] Polymyxin B (PMB), a peptide antibiotic known to bind and neutralize LPS^65 serves as the positive control and reference compound for every plate, enabling the quantitative assessment of repeatability and reproducibility (CV and Z′ factors) for the assay. Automated liquid handling is performed on a Precision 2000 automated microplate pipetting system, programmed using the Precision Power software, Bio-Tek Instruments Inc., VT, USA. Results are reported as half-maximal effective displacement of probe (ED50) (Tables A-F). In all experiments, Polymyxin B (PMB), a decapeptide antibiotic, known to bind and neutralize LPS,^66-69 is used as a reference compound.

[2] = tested on: LPS-induced nitric oxide production in murine macrophage J774A.1 cells; test: NO inhibition (Griess nitrite assay) in LPS-stimulated murine macrophage J774A.1 cells; type: cell-based; conditions: Mus musculus, J774.A1, 10 ng/ml LPS, 16 h
Method: Assessment of neutralization of LPS toxicity: NO inhibition activity. Nitric oxide production is measured as total nitrite in murine macrophage J774A.1 cells using the Griess assay^70 as described previously.^71 J774A.1 cells are plated at ˜10^5/ml in a volume of 40 μl/well, in 384-well, flat-bottomed, cell culture treated microtiter plates and subsequently stimulated with 10 ng/ml lipopolysaccharide (LPS). Concurrent to LPS stimulation, serially diluted concentrations of test compounds are added to the cell medium and left to incubate for 16 h. Polymyxin B is used as reference compound in each plate. Positive-(LPS stimulation only) and negative-controls (J774A.1 medium only) are included in each experiment. Nitrite concentrations are measured by adding 40 μl of supernatant to equal volumes of Griess reagents (50 μl/well; 0.1% NED solution in ddH2O and 1% sulfanilamide, 5% phosphoric acid solution in ddH2O) and incubating for 15 minutes at room temperature in the dark. Absorbance at 535 nm is measured using a Molecular Devices Spectramax M2 multifunction plate reader (Sunnyvale, Calif.). Nitrite concentrations are interpolated from standard curves obtained from serially diluted sodium nitrite standards. IC50 values are determined for compounds that neutralize LPS inhibit NO production in a dose-dependent manner (Tables A-F). Results in this assay parallel those in the binding assay.

[3] = tested on: LPS-induced NF-κB induction in human embryonic kidney 293 cells cotransfected with TLR4, CD14 and MD2; test: Inhibition of LPS induction of NF-κB (seAP reporter) in HEK 293 cells cotransfected with TLR4, CD14 and MD2; type: cell-based; conditions: for IC50: inhibition of LPS-induced NF-κB induction, HEK 293 TLR4/CD14/MD2 reporter cells, read-out: NFκβ inhibition IC50 value; for activity in words (LPS binding / cell-based cytokine inhibition, comment on Table F): qualitative comparison with spermine-sulfonamide counterparts
Excerpt: Assessment of Inhibition of Cytokine Induction (NF-κB): The inhibition of induction of NF-κB (a key transcripitional activator of the innate immune system, leading to uncontrolled cytokine release^72,73 which ultimately leads to multiple organ failure and the shock syndrome) is quantified using human embryonic kidney 293 cells cotransfected with TLR4 (LPS receptor), CD14 and MD2 (co-receptors), available from InvivoGen, Inc. (HEK-Bluetm, San Diego, Calif.), as per protocols provided by the vendor. Stable expression of secreted alkaline phosphatase (seAP) under control of NF-κB/AP-1 promoters is inducible by LPS, and extracellulare seAP in the supernatant is proportional to NF-κB induction. seAP is assayed spectrophotometrically using an alkaline phosphatase-specific chromogen at 620 nm using a rapid-throughput, automated protocol employing a Bio-Tek P2000 liquid handler. Results showing the ability of polycationic sulfonamide compounds to inhibit the induction of NF-κB by LPS are shown in Tables A-F.

Compound: CCCCCCCCS(=O)(=O)NCCCNCCCNCCCCNCCCN [MQTS 2379, N^1-Octanylsulfonyl-1,18-diamino-5,9,14-triazaoctadecane]
- EC50 [1]: 2.84 µM
- IC50 [2]: 6.47 µM
- IC50 ([3]; Homo sapiens, HEK293): 0.816 µM

Compound: N^1,N^14-Bis[N-octanylsulfonyl-3-aminopropyl]-1,14-diamino-5,10-diazabutadecane [MQTS 2397]
- EC50 [1]: 2.6 µM
- IC50 [3]: 0.607 µM

Compound: CCCCCCCCS(=O)(=O)NCCCNCCCNCCCN [MQTS 2413]
- EC50 [1]: 6.7 µM
- IC50 ([3]; Homo sapiens, HEK293): 5.56 µM

Compound: CCCCCCCCS(=O)(=O)NCCCNC/C=C/CNCCCN [MQTS 2415]
- EC50 [1]: 12.5 µM
- IC50 ([3]; Homo sapiens, HEK293): 12.7 µM

Compound: CCCCCCCCS(=O)(=O)NCCCNCCCCNCCCN [MQTS 2351, N^1-Octanylsulfonyl-1,14-diamino-5,10-diazabutadecane]
- EC50 [1]: 6.64 µM
- IC50 [2]: 1.44 µM
- IC50 ([3]; Homo sapiens, HEK293): 33.3 µM

Compound: CCCCCCCCCCCCS(=O)(=O)NCCCNCCCNCCCCNCCCN [MQTS 2382, N^1-Dodecanylsulfonyl-1,18-diamino-5,9,14-triazaoctadecane]
- EC50 [1]: 2.92 µM
- IC50 [2]: 0.39 µM
- IC50 ([3]; Homo sapiens, HEK293): 0.19 µM

Compound: CCCCCCCCCCCCS(=O)(=O)NCCCN(CCCNCCCNCCCCNCCCN)CCCNS(=O)(=O)CCCCCCCCCCCC [MQTS 2390, N^1-Bis[N-dodecanylsulfonyl-3-aminopropyl]-1,18-diamino-5,9,14-triazaoctadecane]
- EC50 [1]: 6.82 µM
- IC50 [2]: 0.51 µM
- IC50 ([3]; Homo sapiens, HEK293): 16.4 µM

Compound: CCCCCCCCCCCCCCCCS(=O)(=O)NCCCN(CCCN)CCCN [MQTS 2409]
- EC50 [1]: 12.3 µM
- IC50 ([3]; Homo sapiens, HEK293): 9.19 µM

Compound: CCCCCCCCCCS(=O)(=O)NCCCNCCCCNCCCN [MQTS 2377, N^1-Decanylsulfonyl-1,14-diamino-5,10-diazabutadecane]
- EC50 [1]: 3.7 µM
- IC50 [2]: 4.42 µM
- IC50 ([3]; Homo sapiens, HEK293): 0.5 µM

Compound: CCCCCCCCCCCCCCCCS(=O)(=O)NCCN(CCN)CCN [MQTS 2410]
- EC50 [1]: 3.54 µM
- IC50 ([3]; Homo sapiens, HEK293): 0.379 µM

Compound: CCCCCCCCCCCCCCCCCCS(=O)(=O)NCCCNCCCCNCCCN [MQTS 2378]
- EC50 [1]: 6.01 µM
- IC50 [2]: 0.48 µM
- IC50 ([3]; Homo sapiens, HEK293): 0.36 µM

Compound: N^1,N^14-Bis[N-dodecanylsulfonyl-3-aminopropyl]-1,14-diamino-5,10-diazabutadecane [MQTS 2399]
- EC50 [1]: 55.2 µM
- IC50 [3]: 10.3 µM

Compound: CCCCCCCCCCS(=O)(=O)NCCCN(CCCNCCCCNCCCN)CCCNS(=O)(=O)CCCCCCCCCC [MQTS 2419, N^1-Bis[N-decanylsulfonyl-3-aminopropyl]-1,14-diamino-5,10-diazabutadecane]
- EC50 [1]: 2.4 µM
- IC50 [2]: 1.1 µM
- IC50 ([3]; Homo sapiens, HEK293): 5.17 µM

Compound: CCCCCCCC(=O)NCCCN(CCCNCCCNCCCCNCCCN)CCCNC(=O)CCCCCCC [MQTS 2418]
- EC50 [1]: 1 µM
- IC50 [2]: 2.48 µM
- IC50 ([3]; Homo sapiens, HEK293): 3.17 µM
- activity in words (LPS binding / cell-based cytokine inhibition, comment on Table F) [3]: greatly diminished activity

Compound: CCCCCCCCCCCCCCCCCCS(=O)(=O)NCCCN(CCCNCCCCNCCCN)CCCNS(=O)(=O)CCCCCCCCCCCCCCCCCC [MQTS 2394, N^1-Bis[N-octadecanylsulfonyl-3-aminopropyl]-1,14-diamino-5,10-diazabutadecane]
- EC50 [1]: 28.3 µM
- IC50 [2]: 2330 µM
- IC50 ([3]; Homo sapiens, HEK293): 64 µM

Compound: CCCCCCCCCCCCS(=O)(=O)NCCNCCCNCCN [MQTS 2412]
- EC50 [1]: 4.77 µM
- IC50 ([3]; Homo sapiens, HEK293): 0.686 µM

Compound: CCCCCCCCS(=O)(=O)NCCCN(CCCNCCCCNCCCN)CCCNS(=O)(=O)CCCCCCCC [MQTS 2406, N^1-Bis[N-octanylsulfonyl-3-aminopropyl]-1,14-diamino-5,10-diazabutadecane]
- EC50 [1]: 2.17 µM
- IC50 ([3]; Homo sapiens, HEK293): 0.669 µM

Compound: CCCCCCCCCCCCS(=O)(=O)NCCCNCCCNCCCN [MQTS 2414]
- EC50 [1]: 4.27 µM
- IC50 ([3]; Homo sapiens, HEK293): 0.363 µM

Compound: CCCCCCCCCCS(=O)(=O)NCCCN(CCCNCCCNCCCCNCCCN)CCCNS(=O)(=O)CCCCCCCCCC [MQTS 2417, N^1-Bis[N-decanylsulfonyl-3-aminopropyl]-1,18-diamino-5,9,14-triazaoctadecane]
- EC50 [1]: 1.16 µM
- IC50 [2]: 0.43 µM
- IC50 ([3]; Homo sapiens, HEK293): 2.2 µM

Compound: CCCCCCCCCCCCCCCCS(=O)(=O)NCCCOCCCCOCCCN [MQTS 2370]
- EC50 [1]: > 5000 µM
- IC50 [2]: 30.9 µM
- IC50 ([3]; Homo sapiens, HEK293): 22.4 µM
- activity in words (LPS binding / cell-based cytokine inhibition, comment on Table F) [3]: much lower activities

Compound: CCCCCCCCCCS(=O)(=O)NCCCNCCCNCCCCNCCCN [MQTS 2381]
- EC50 [1]: 2.89 µM
- IC50 [2]: 1.09 µM
- IC50 ([3]; Homo sapiens, HEK293): 0.278 µM

Compound: CCCCCCCCS(=O)(=O)NCCNCCCNCCN [MQTS 2411]
- EC50 [1]: 10.6 µM
- IC50 ([3]; Homo sapiens, HEK293): 13.8 µM

Compound: CCCCCCCCCCCCCCCCS(=O)(=O)NCCCN(CCCNCCCCNCCCN)CCCNS(=O)(=O)CCCCCCCCCCCCCCCC [MQTS 2396]
- EC50 [1]: 26.4 µM
- IC50 [2]: 15.1 µM
- IC50 ([3]; Homo sapiens, HEK293): 4.85 µM

Compound: CCCCCCCCCCCCCCCCS(=O)(=O)NCCCN(CCCNCCCNCCCCNCCCN)CCCNS(=O)(=O)CCCCCCCCCCCCCCCC [MQTS 2391]
- EC50 [1]: 9.31 µM
- IC50 [2]: 5.2 µM
- IC50 ([3]; Homo sapiens, HEK293): 2.68 µM

Compound: CCCCCCCC(=O)NCCCN(CCCNCCCCNCCCN)CCCNC(=O)CCCCCCC [MQTS 2421]
- EC50 [1]: 1.32 µM
- IC50 [2]: 9.02 µM
- IC50 ([3]; Homo sapiens, HEK293): 9.76 µM
- activity in words (LPS binding / cell-based cytokine inhibition, comment on Table F) [3]: greatly diminished activity

Compound: CCCCCCCCCCCCCCCCCCS(=O)(=O)NCCCNCCCCNCCCCNCCCCNCCCNS(=O)(=O)CCCCCCCCCCCCCCCCCC [MQTS 2401, N^1,N^14-Bis[N-octadecanylsulfonyl-3-aminopropyl]-1,14-diamino-5,10-diazabutadecane]
- EC50 [1]: > 5000 µM
- IC50 [3]: 6.49 µM

Compound: N^1,N^14-Bis[N-hexadecanylsulfonyl-3-aminopropyl]-1,14-diamino-5,10-diazabutadecane [MQTS 2400]
- EC50 [1]: 133 µM
- IC50 [3]: 11.7 µM

Compound: CCCCCCCCCCCCS(=O)(=O)NCCCNC/C=C/CNCCCN [MQTS 2416]
- EC50 [1]: 3.83 µM
- IC50 ([3]; Homo sapiens, HEK293): 0.522 µM
- activity in words (LPS binding / cell-based cytokine inhibition, comment on Table F) [3]: active

Compound: CCCCCCCCCCCCCCCCCCS(=O)(=O)NCCCNCCCNCCCCNCCCN [MQTS 2380, N^1-Octadecanylsulfonyl-1,18-diamino-5,9,14-triazaoctadecane]
- EC50 [1]: 4.45 µM
- IC50 [2]: 0.23 µM
- IC50 ([3]; Homo sapiens, HEK293): 1.06 µM

Compound: N^1,N^14-Bis[N-decanylsulfonyl-3-aminopropyl]-1,14-diamino-5,10-diazabutadecane [MQTS 2398]
- EC50 [1]: 13.5 µM
- IC50 [3]: 4.2 µM

Compound: CCCCCCCCCCCCS(=O)(=O)NCCCN(CCCNCCCCNCCCN)CCCNS(=O)(=O)CCCCCCCCCCCC [MQTS 2420, N^1-Bis[N-dodecanylsulfonyl-3-aminopropyl]-1,14-diamino-5,10-diazabutadecane]
- EC50 [1]: 3.98 µM
- IC50 [2]: 2.27 µM
- IC50 ([3]; Homo sapiens, HEK293): 13.2 µM

Compound: CCCCCCCCCCCCCCCCS(=O)(=O)NCCCCCCCCCCCCN [MQTS 2369]
- IC50 ([3]; Homo sapiens, HEK293): 200 µM
- activity in words (LPS binding / cell-based cytokine inhibition, comment on Table F) [3]: much lower activities

Compound: CCCCCCCCCCCCCCCCS(=O)(=O)N(CCCN)CCCCNCCCN [MQTS 2363]
- EC50 [1]: 45.6 µM
- IC50 [2]: 13.7 µM
- IC50 ([3]; Homo sapiens, HEK293): 2.68 µM
- activity in words (LPS binding / cell-based cytokine inhibition, comment on Table F) [3]: greatly diminished activity

Compound: CCCCCCCCCCCCS(=O)(=O)NCCCNCCCCNCCCN [MQTS 2357, N^1-Dodecanylsulfonyl-1,14-diamino-5,10-diazabutadecane]
- EC50 [1]: 2.69 µM
- IC50 [2]: 1.34 µM
- IC50 ([3]; Homo sapiens, HEK293): 0.41 µM
